Earlier results as cited in patent publication US20100317677A1, “Methods of Treating a Microbial Infection by Modulating RNase-L Expression and/or Activity” (priority 2007, published 2010).

Biological target: T1, RNase-L (Homo sapiens, UniProt Q05823)
T1 sequence (Q05823 1-741): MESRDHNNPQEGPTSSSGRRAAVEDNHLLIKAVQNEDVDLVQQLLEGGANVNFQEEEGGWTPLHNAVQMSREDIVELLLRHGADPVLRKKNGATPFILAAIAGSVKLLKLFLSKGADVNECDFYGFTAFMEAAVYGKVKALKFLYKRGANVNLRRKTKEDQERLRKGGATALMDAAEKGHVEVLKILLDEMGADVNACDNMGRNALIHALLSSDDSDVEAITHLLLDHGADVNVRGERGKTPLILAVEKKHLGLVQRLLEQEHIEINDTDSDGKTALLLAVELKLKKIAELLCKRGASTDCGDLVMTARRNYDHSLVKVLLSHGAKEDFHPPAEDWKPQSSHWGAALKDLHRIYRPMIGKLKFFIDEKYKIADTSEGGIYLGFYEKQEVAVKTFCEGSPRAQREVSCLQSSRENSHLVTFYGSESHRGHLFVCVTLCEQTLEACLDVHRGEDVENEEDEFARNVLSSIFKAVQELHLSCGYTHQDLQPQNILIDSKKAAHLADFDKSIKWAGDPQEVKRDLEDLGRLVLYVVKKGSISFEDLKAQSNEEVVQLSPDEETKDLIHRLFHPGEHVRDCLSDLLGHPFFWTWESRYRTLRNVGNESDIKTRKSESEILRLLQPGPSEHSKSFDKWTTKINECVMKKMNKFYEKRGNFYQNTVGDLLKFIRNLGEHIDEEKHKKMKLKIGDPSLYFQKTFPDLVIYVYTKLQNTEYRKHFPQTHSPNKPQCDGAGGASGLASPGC
Settings: statement in words, cited from Thakur et al. 2007 and other literature

- Effect on the activity of RNase-L: increases the activity of RNase-L
Substance: px5′A(2′p5′A)n [2-5A]
